In general, pIC50 refers to the IC50 on a negative log10 scale, so that one unit is a factor of ten.

pIC50: −log10 of the molar value.

One experiment relates to MKN45 cells. As to the kind of experiment: MKN45 cell proliferation assay (CellTiter-Glo). It is filed as cell-based. The note with it: Homo sapiens, MKN-45, 72 h; MKN45 cell line, 3 days incubation, at least duplicate experiments; read-out: Prolif. IC50. As to the method:
The effect of inhibitors on the proliferation of MKN45 cells was determined using the following protocol. MKN45 cells were plated in Corning 3917 96-well white tissue culture treated plates in growth medium (RPMI, 10% FCS) at a density of 5000 cells/well in a total volume of 135 μL and incubated at 37° C., 5% CO2, 95% humidity overnight. The following day, one-tenth volume of a 10× concentration of compounds was added to the wells in an 8-point dilution series. The dilution series was composed of an initial 1:5 dilution of a 10 mM stock of compound in DMSO, followed by serial 1:4 dilutions in DMSO, then a 1:20 dilution in growth medium prior to the 1:10 dilution into the cell plate. Final DMSO concentration on the cells was 0.1%, there were control wells treated with both 0.1% DMSO and no DMSO. The typical dilution range is 10 μM to 0.6 nM. Once the compound was added to the cells, plates were incubated for 3 days at 37° C., 5% CO2 at 95% humidity. On the third day, after allowing all cells and reagents to come to room temperature, 25 μL of CellTiter-Glo reagent (Promega #G7573) was added to the wells. Plates were shaken on a platform for 10 minutes prior to reading luminescence for 0.1 seconds. The signal of the control wells was taken as 100% growth and growth inhibition was expressed as percent of control. IC50 values were determined from the percent of control data using a standard four-parameter model.
The IC50 values of exemplary compounds of the present invention determined in a cell proliferation assay using the MKN45 cell line according to the procedures described herein in at least duplicate experiments are abbreviated as follows and are shown in Table 2: A, IC50≦0.03 μM; B, 0.03 μM<IC50≦0.1 μM; C, 0.1 μM<IC50≦1 μM; D, 1 μM<IC50≦3 μM; ND, not determined. The Example # of Table 2 corresponds to the compound example number as illustrated in the Examples section. […]
A general note: In ATP-based viability assays light output follows the ATP content of the culture.

For the next experiment, the system named is Karpas-299 cells. Nature of the experiment: Karpas-299 cell proliferation assay (CellTiter-Glo). In kind it is cell-based. The note with it: Homo sapiens, 72 h; Karpas-299 cell line (NPM-ALK), 3 days incubation, at least duplicate experiments; read-out: Prolif. IC50. The protocol: The effect of inhibitors on the proliferation of Karpas-299 cells (DSMZ no. ACC 31) was determined using the following protocol. Karpas-299 cells were plated in 96-well white tissue culture treated plates (Corning 3917) in growth medium (RPMI, 10% FCS) at a density of 5000 cells/well in a total volume of 135 μL and incubated at 37° C., 5% CO2, 95% humidity overnight. The following day, one-tenth volume of a 10× concentration of compounds was added to the wells in an 8-point dilution series. Compounds were serially diluted (1:4) in DMSO from a 10 mM stock solution prior to dilution in growth media to the 10× working concentrations (5% DMSO). Final concentration of DMSO in compound-treated wells was 0.5%. Control wells containing growth media or growth media/0.5% DMSO were included in all test plates. The typical dilution range is 10 μM to 0.1 nM. Once the compounds were added to the cells, plates were incubated for 3 days at 37° C., 5% CO2 at 95% humidity. After 72 hours, all cells and reagents were equilibrated to room temperature and 15 μL of CellTiter-Glo reagent (Promega #G7573) was added to each well. Plates were shaken on a platform for 10 minutes at room temperature prior to reading luminescence. The value of the signal of the control wells was set as 100% growth and growth inhibition was expressed as percent of control. IC50 values were determined from the percent of control data using a standard four-parameter curve fit equation.
The IC50 values of exemplary compounds of the present invention determined in a cell proliferation assay using the Karpas-299 cell line according to the procedures described herein in at least duplicate experiments are abbreviated as follows and are shown in Table 5: A, IC50≦0.03 μM; B, 0.03 μM<IC50≦0.1 μM; C, 0.1 μM<IC50≦1 μM; D, 1 μM<IC50≦3 μM; ND, not determined. The Example # of Table 5 corresponds to the compound example number as illustrated in the Examples section.
The Karpas-299 cell line has a t(2;5) chromosomal translocation and expresses the NPM-ALK fusion protein, resulting in constitutively active ALK. […] Ther. 6(12):3314-22 (2007)]. With this “ALK-driven” cell line by ALK, the cell proliferation IC50 values can thus be used as surrogate for the p-ALK cell mechanistic IC50 values.

Take `Cn1cc(-c2cnc3[nH]cc(C(CF)c4c(Cl)ccc(F)c4Cl)c3c2)cn1` (stereo not shown) [Example 1, 3-[1-(2,6-Dichloro-3-fluorophenyl)-2-fluoroethyl]-5-(1-methyl-1H-pyrazol-4-yl)-1H-pyrrolo[2,3-b]pyridine]: the pIC50 in the experiment with MKN45 cells and with Karpas-299 cells was 6.00 to 7.00 in each case.

As to `O[C@H]1CC[C@H](n2cc(-c3cnc4[nH]cc([C@@H](CF)c5c(OC(F)F)ccc(F)c5Cl)c4c3)cn2)CC1` [Example 4, trans-4-[4-(3-{(1R)-1-[2-Chloro-6-(difluoromethoxy)-3-fluorophenyl]-2-fluoroethyl}-1H-pyrrolo[2,3-b]pyridin-5-yl)-1H-pyrazol-1-yl]cyclohexanol], the pIC50 with MKN45 cells is at least 7.52; in the experiment with Karpas-299 cells, 6.00 to 7.00. For `O[C@H]1CC[C@H](n2cc(-c3cnc4[nH]cc([C@H](CF)c5c(OC(F)F)ccc(F)c5Cl)c4c3)cn2)CC1` [Example 5, trans-4-[4-(3-{(1S)-1-[2-Chloro-6-(difluoromethoxy)-3-fluorophenyl]-2-fluoroethyl}-1H-pyrrolo[2,3-b]pyridin-5-yl)-1H-pyrazol-1-yl]cyclohexanol], in the experiment on Karpas-299 cells, the negative logarithm of the IC50 (pIC50) was at least 7.52. `COc1ccc(F)c(Cl)c1[C@@H](CF)c1c[nH]c2ncc(-c3cnn([C@H]4CC[C@H](O)CC4)c3)cc12` [Example 3, trans-4-(4-{3-[(1S)-1-(2-chloro-3-fluoro-6-methoxyphenyl)-2-fluoroethyl]-1H-pyrrolo[2,3-b]pyridin-5-yl}-1H-pyrazol-1-yl)cyclohexanol]: the pIC50 with MKN45 cells was 6.00 to 7.00; in the experiment with Karpas-299 cells, 7.00 to 7.52.

(Values after US20140088114A1, “FUSED BICYCLIC KINASE INHIBITORS” (OSI Pharmaceuticals ,LLC, priority 2011, published 2014).)
